What was measured:
STAT3 [1] = test: Western blot of STAT3 and phosphorylated STAT3 in IL6-treated LNCaP cells; assay type: cell-based, human
Protocol: Experiments were then performed to determine if STAT3 is phosphorylated following exposure to IL6.
The same cells were treated with 50 μM of a potent phosphatase inhibitor, peroxovanadate (POV), to determine if the nimesulide-mediated inhibition of phosphorylation of STAT3 by IL6 was due to activation of one or more phosphatases. […] Therefore, the inhibitory effect of nimesulide on phosphorylation of STAT3 by IL6 may be caused by activation of one or more phosphatases, because the inhibitor could partially reverse the reduced phosphorylation of STAT3 by nimesulide. It was noted that POV alone had no effect on phosphorylation of STAT3 in the absence of IL6.

hK2 [2] = test: Secreted hK2 protein level (immunoassay), LAPC-4; assay type: cell-based, human; settings: LAPC-4 cells, secreted hK2 in spent medium, treated 6 days
Protocol: (§1) FIG. 1 is a graph showing the effects of NSAIDs on the expression of PSA and hK2 proteins in prostate cancer cells ±1 nM Mib. […] PSA and hK2 values were normalized to growth response measured by a 3-(4,5-dimethylthiazol-2-yl)-2,5-diphenyltetrazolium bromide assay and expressed as a percentage of that group treated with Mib only. Error bars indicate the SE of four separate experiments.
(§2) Human prostate cancer cell lines LNCaP (American Type Culture Collection, Manassas, Va.) and LAPC-4 (kindly provided by Dr. Charles L. Sawyers; Zhu et al., 1999, Endocrinology, 140:5451-4) were maintained in RPMI 1640 (Mediatech, Hercules, Calif.) containing 5% FBS (Biofluids, Rockville, Md.) at 37° C. and 5% CO2. To avoid potential interference of existing steroids in FBS, the media were first replaced by serum-free RPMI 1640 for 24 h. Cells were then cultured in RPMI 1640 with 5% charcoalstripped FBS supplemented with or without 1 nM Mib (New England Nuclear, Boston, Mass.), a nomnetabolizable, synthetic androgen.
(§3) Cells were plated in 24-well plates at 2×10^4 cells/well. […] MTS assay (Promega, Madison, Wis.) was performed to determine cell proliferation 6 days after the treatment. To measure secreted PSA and hK2 levels, 400 μl of spent medium from cells treated for 6 days were collected. PSA and hK2 proteins levels were determined using specific immunoassays (Mayo Immunochemical Core Facility). These measurements were used to the calculate 50% inhibitory concentration (IC50) of each of the NSAIDs.

PSA [3] = test: Secreted PSA protein level (immunoassay), LAPC-4; assay type: cell-based, human; settings: LAPC-4 cells, secreted PSA in spent medium, treated 6 days
Protocol: as §1, §2, §3

PSA [4] = test: Secreted PSA protein level (immunoassay), LNCaP; assay type: cell-based, human; settings: for IC50: LNCaP cells, secreted PSA in spent medium, treated 6 days
Protocol: as §1, §2, §3

LAPC-4 cells = test: Growth response (MTS cell proliferation assay), LAPC-4; assay type: cell-based, human; settings: MTS assay 6 days after treatment
Protocol: as §2, §3

hK2 [5] = test: Secreted hK2 protein level (immunoassay), LNCaP; assay type: cell-based, human; settings: for IC50: LNCaP cells, secreted hK2 in spent medium, treated 6 days
Protocol: as §1, §2, §3

LNCaP cells = test: Growth response (MTS cell proliferation assay), LNCaP; assay type: cell-based, human; settings: MTS assay 6 days after treatment
Protocol: as §2, §3

6-kb PSA promoter = test: PSA promoter-luciferase reporter assay in LNCaP cells; settings: concentration as low as 25 μM, 1 nM Mib, 24 h
androgen receptor = test: IL6-activated hK2 ARE-SV40-pGL3 reporter, transient transfection; assay type: cell-based, human; settings: celecoxib 50 μM, nimesulide 100 μM; IL6 50 ng/ml; androgen 1 nM
Protocol: Experiments were performed to determine whether or not IL6 increased expression of PSA and/or hK2.

AR = test: Western blot of AR protein expression; assay type: cell-based, human; settings: concentrations used in the transfections
Protocol: (§4) Cells were seeded at 1×10^5 cells/plate in 100 mm dishes. […] The cells were collected by centrifugation and washed with nimesulide for 15 or 24 h. The cells were collected by centrifugation and washed with cold PBS. Cell lysates were prepared in radioimmunoprecipitation assay buffer (PBS containing 1% NP40, 0.5% sodium deoxycholate, 0.1% SDS plus freshly added protease inhibitors, 100 μg/ml phenylmethylsulfonyl fluoride, 30 μl/ml aprotinin, and 1 mM sodium orthovanadate) and used for Western blot analysis. The sample filters were immunoblotted with c-Jun, phospho-c-Jun (Cell Signaling, Beverly, Mass.), AR (PharMingen, San Diego, Calif.), and FKBP51 (a gift from Dr. D. O. Toft; Mayo Clinic) specific primary antibodies and horseradish peroxidase-conjugated secondary antibodies and visualized by enhanced chemiluminescence (Amersham Pharmacia, Piscataway, N.J.).

[6] = test system: AR/ARE (hK2 3xARE-SV40 minimal promoter); test: hK2 3xARE luciferase reporter assay in LNCaP cells; settings: P<0.05, 24 h
STAT3 [7] = test: STAT3 responsive element luciferase reporter in LNCaP cells; settings: celecoxib 50 μM, nimesulide 100 μM, IL6 25-50 ng/ml, six hours
AR promoter (−1380/+577) = test: AR promoter-luciferase reporter assay in LNCaP cells; settings: 1 nM Mib, 24 h, FIG. 3A
c-Jun = test: Western blot of c-Jun protein in LNCaP cells; assay type: cell-based, human; settings: 24 h of treatment
Protocol: as §4

FKBP51 = test: Western blot of androgen-up-regulated FKBP51 protein; assay type: cell-based, human; settings: 1 nM Mib
Protocol: as §4

[8] = FIG. 1, dose-dependent, LNCaP and LAPC-4 cells, 1 nM Mib

| Compound | IC50 (hK2 [2]; Homo sapiens, 144 h) [µM] | IC50 (PSA [3]; Homo sapiens, LAPC4, 144 h) [µM] | IC50 (PSA [4]; Homo sapiens, 144 h) [µM] | IC50 (LAPC-4 cells; Homo sapiens, LAPC4, 144 h) [µM] | IC50 (hK2 [5]; Homo sapiens, 144 h) [µM] | IC50 (LNCaP cells; Homo sapiens, 144 h) [µM] | further results |
| --- | --- | --- | --- | --- | --- | --- | --- |
| peroxovanadate [POV] |  |  |  |  |  |  | phosphorylation of STAT3 in the absence of IL6 (STAT3 [1]; 50 μM POV alone): no effect |
| Cc1ccc(-c2cc(C(F)(F)F)nn2-c2ccc(S(N)(=O)=O)cc2)cc1 [Celecoxib] | 43.7 | 28.7 | 20 | 44.5 | 29.6 |  |  |
| CC(C(=O)O)c1ccc(-c2ccccc2)c(F)c1 (centres unmarked) [Flurbiprofen] | 221 | 234 | 206 | 347 | 281 | > 300 |  |
| CC(=O)Oc1ccccc1C(=O)O [Aspirin] | > 1000 | > 1000 | > 1000 | > 1000 | > 1000 | > 1000 |  |
| CC1=C(CC(=O)O)c2cc(F)ccc2/C1=C\c1ccc([S+](C)[O-])cc1 (centres unmarked) [Sulindac] | > 300 | > 300 | > 300 | > 300 | > 300 | > 300 |  |
| CS(=O)(=O)Nc1ccc([N+](=O)[O-])cc1Oc1ccccc1 [Nimesulide] | 61 | 76.5 | 27 | 104 | 23 | 38.2 | androgen-induced PSA promoter activity (6-kb PSA promoter): significantly reduced; androgen receptor-mediated expression of the reporter gene activated by IL6 or IL6 plus androgen (androgen receptor): inhibit; expression of PSA (PSA [4]; [8]): suppressed; AR protein expression (AR): reduced; AR/ARE-mediated gene expression (hK2 3xARE reporter) [6]: significantly reduced; STAT3-specific responsive element-mediated luciferase expression activated by IL6 (STAT3 [7]): inhibited; transcription activities of the AR promoter (−1380/+577) (AR promoter (−1380/+577)): repressed; c-Jun protein (c-Jun): strongly induced; androgen-up-regulated FKBP51 protein expression (FKBP51): alleviated; phosphorylation of STAT3 by IL6 (STAT3 [1]; celecoxib 50 μM, nimesulide 100 μM, IL6 25-50 ng/ml): significantly suppressed; expression of hK2 (hK2 [5]; [8]): suppressed |
| Cc1cnc(NC(=O)C2=C(O)c3ccccc3S(=O)(=O)N2C)s1 [Meloxicam] | > 300 | > 300 | 300 | 92 | 377 | 193 |  |
| CC(C(=O)O)c1cccc(C(=O)c2ccccc2)c1 (centres unmarked) [Ketoprofen] | > 300 | > 300 | > 300 | > 300 | > 300 | > 300 |  |
| CC1=C(CC(=O)O)c2cc(F)ccc2/C1=C\c1ccc(S(C)(=O)=O)cc1 [Sulindac sulfone] |  |  |  |  |  |  | IC50 (hK2 [2]): > 300 µM; IC50 (PSA [3]): 194 µM; IC50 (LNCaP cells): > 300 µM; IC50 (PSA [4]): 206 µM; IC50 (LAPC-4 cells): 253 µM; IC50 (hK2 [5]): 97.6 µM |
| CC(C)Cc1ccc(C(C)C(=O)O)cc1 (centres unmarked) [Ibuprofen] | 803 | 870 | 783 | 740 | 860 | > 1000 |  |
| COc1ccc2c(c1)c(CC(=O)O)c(C)n2C(=O)c1ccc(Cl)cc1 [Indomethacin] | 207 | 203 | 224 | 170 | 272 | > 300 |  |
| CC(C(=O)O)c1cccc(Oc2ccccc2)c1 (centres unmarked) [Fenoprofen] |  |  | 210 |  | 229 | > 300 |  |

Reference: patent US20070105931A1, “Methods and compositions for inhibiting the proliferation of prostate cancer cells” (Mayo Foundation for Medical Education and Research, priority 2003, published 2007)
